pKi: −log10 of the molar value. Read-outs that look alike come from different tables or passages of the source.
Assays:
Experiment in all cases: biochemical
[1] = molecular target: T1, recombinant mu-opioid receptor expressed in CHO-K1 cells (Homo sapiens, UniProt P35372); format: binding; settings: for selectivity for mu opioid receptors relative to delta and kappa opioid receptors: from Ki data of Table 4
T1 construct: purchased Receptor Biology Inc; host or cells: CHO-K1

[2] = molecular target: T2, recombinant kappa opiod receptor expressed in HEK 293 cells (Homo sapiens, UniProt P41145); format: binding
T2 construct: purchased Receptor Biology Inc; host or cells: HEK 293
T2 sequence (P41145 whole entry): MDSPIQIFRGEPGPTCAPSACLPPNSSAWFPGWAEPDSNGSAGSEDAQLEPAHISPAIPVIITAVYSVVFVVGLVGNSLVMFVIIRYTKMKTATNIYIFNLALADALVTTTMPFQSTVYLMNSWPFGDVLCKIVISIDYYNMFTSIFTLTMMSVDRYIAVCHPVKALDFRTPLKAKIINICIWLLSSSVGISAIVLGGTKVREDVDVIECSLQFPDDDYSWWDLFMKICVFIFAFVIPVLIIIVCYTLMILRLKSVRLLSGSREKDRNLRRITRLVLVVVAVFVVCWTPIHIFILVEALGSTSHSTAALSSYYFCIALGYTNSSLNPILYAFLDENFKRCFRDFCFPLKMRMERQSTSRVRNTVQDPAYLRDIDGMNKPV

[3] = molecular target: T3, recombinant delta opiod receptor expressed in CHO-K1 cells (Homo sapiens, UniProt P41143); settings: 0.2 nM [3H]-naltrindole, Table 1; read-out: Delta-Receptor Binding Affinity Ki
T3 construct: purchased Receptor Biology Inc., Beltsville, Md; host or cells: CHO-K1
T3 sequence (P41143 whole entry): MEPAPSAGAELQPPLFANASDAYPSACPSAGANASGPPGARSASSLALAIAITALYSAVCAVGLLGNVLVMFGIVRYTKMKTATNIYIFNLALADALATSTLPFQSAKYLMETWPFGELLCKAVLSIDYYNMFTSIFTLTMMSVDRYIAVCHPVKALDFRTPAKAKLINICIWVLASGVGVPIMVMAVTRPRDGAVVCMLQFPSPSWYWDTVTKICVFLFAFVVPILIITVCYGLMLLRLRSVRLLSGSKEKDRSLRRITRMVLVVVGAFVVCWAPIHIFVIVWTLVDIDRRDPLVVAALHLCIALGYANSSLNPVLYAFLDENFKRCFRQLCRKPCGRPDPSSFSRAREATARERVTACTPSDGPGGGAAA

[4] = 0.2 nM [3H]-diprenorphine, Table 3, read-out: Mu-Receptor Binding Affinity Ki
[5] = 0.15 nM [3H]-bremazocine, Table 2, read-out: Kappa-Receptor Binding Affinity Ki

T1 sequence (P35372 whole entry): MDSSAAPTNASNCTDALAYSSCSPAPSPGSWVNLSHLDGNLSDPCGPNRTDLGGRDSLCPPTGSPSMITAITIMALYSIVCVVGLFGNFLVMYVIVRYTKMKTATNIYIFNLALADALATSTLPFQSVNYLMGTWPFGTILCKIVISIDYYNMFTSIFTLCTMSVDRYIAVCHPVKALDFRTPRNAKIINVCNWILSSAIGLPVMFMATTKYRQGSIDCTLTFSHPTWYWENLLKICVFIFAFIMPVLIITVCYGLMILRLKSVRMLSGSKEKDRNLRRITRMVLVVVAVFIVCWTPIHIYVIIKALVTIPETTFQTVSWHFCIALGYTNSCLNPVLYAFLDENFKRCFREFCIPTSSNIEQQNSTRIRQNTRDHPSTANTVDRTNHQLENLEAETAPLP

Row | Compound | mu selectivity compared with morphine sulfate [1] | pKi [1, 4] | selectivity for mu opioid receptors relative to delta and kappa opioid receptors [1] | pKi [2, 5] | pKi [3] | pKi [1] | pKi [2]
1 | CN1CCC23c4c5ccc(O)c4O[C@H]2[C@H](OC2OC(CO)C(O)C(O)C2O)CCC3C1C5 (stereo partly drawn) [Dihydroisomorphine-6-glucoside, 6-O-Glucosyldihydroisomorphine] | higher than that of morphine sulfate | 8.33 | high selectivity for mu opioid receptors | 6.36 | 6.06 | – | –
2 | CN1CC[C@]23c4c5ccc(O)c4O[C@H]2[C@@H](O)CC[C@H]3[C@H]1C5 [Dihydromorphine, reference compound] | – | – | – | – | – | 9.41 | –
3 | CN1CC[C@]23c4c5ccc(OC6O[C@H](CO)[C@@H](O)[C@H](O)[C@H]6O)c4O[C@H]2C(=O)CC[C@H]3[C@H]1C5 (stereo partly drawn) [Hydromorphone-3-glucoside, 3-O-Glucosylhydromorphone] | higher than that of morphine sulfate | 7.29 | high selectivity for mu opioid receptors | 5.62 | 5.35 | – | –
4 | Oc1ccc2c3c1O[C@H]1c4oc5ccccc5c4C[C@@]4(O)[C@@H](C2)N(CC2CC2)CC[C@]314 [Naltriben, reference compound] | – | – | – | – | – | – | 8.62

— patent US6740641B2 (priority 2001, dated 2004)
